Results reported in paper PMC5218480 (PLoS ONE, 2017).

Test system: MV-4-11 cells
Experiment: Gene expression microarray analysis (Affymetrix PrimeView) and GSEA
Assay type: cell-based, human
Set-up: RFU PODN (11730768_x_at) / Fold change /veh PODN (11730768_x_at) / RFU LINC00158 (11744669_a_at) / Fold change /veh LINC00158 (11744669_a_at) / RFU DUSP10 (11751237_a_at) / Fold change /veh DUSP10 (11751237_a_at) / RFU ID3 (11757404_x_at) / Fold change /veh ID3 (11757404_x_at) / RFU PLEKHG5 (11737974_s_at) / Fold change /veh PLEKHG5 (11737974_s_at) / RFU LRRC4B (11730491_at) / Fold change /veh LRRC4B (11730491_at) / RFU GIMAP4 (11747438_a_at) / Fold change /veh GIMAP4 (11747438_a_at) / RFU KRT8 (11758183_x_at) / Fold change /veh KRT8 (11758183_x_at) / RFU CNN1 (11734310_a_at) / Fold change /veh CNN1 (11734310_a_at) / RFU VPS37D (11726825_at) / Fold change /veh VPS37D (11726825_at) / RFU C10orf10 (11716522_x_at) / Fold change /veh C10orf10 (11716522_x_at) / RFU KIR2DL2 /// KIR2DL4 /// KIR2DL5A /// KIR2DL5B /// KIR2DS1 /// KIR2DS2 /// KIR2DS3 /// KIR2DS4 /// KIR3DL3 /// KIR3DL3 /// KIR3DS1 (11738374_at) / Fold change /veh KIR2DL2 /// KIR2DL4 /// KIR2DL5A /// KIR2DL5B /// KIR2DS1 /// KIR2DS2 /// KIR2DS3 /// KIR2DS4 /// KIR3DL3 /// KIR3DL3 /// KIR3DS1 (11738374_at) / RFU C1QL1 (11718748_at) / Fold change /veh C1QL1 (11718748_at) / RFU TMPRSS4 (11747572_a_at) / Fold change /veh TMPRSS4 (11747572_a_at) / RFU HAMP (11756126_x_at) / Fold change /veh HAMP (11756126_x_at) / RFU RNFT2 (11725882_a_at) / Fold change /veh RNFT2 (11725882_a_at) / RFU NR4A2 (11747474_a_at) / Fold change /veh NR4A2 (11747474_a_at) / RFU ABCC12 (11746883_a_at) / Fold change /veh ABCC12 (11746883_a_at) / RFU TMEM136 (11760407_x_at) / Fold change /veh TMEM136 (11760407_x_at) / RFU CLDN22 /// WWC2 (11732394_at) / Fold change /veh CLDN22 /// WWC2 (11732394_at) / RFU HLA-DPB1 (11760878_x_at) / Fold change /veh HLA-DPB1 (11760878_x_at) / RFU SPINT1 (11716480_a_at) / Fold change /veh SPINT1 (11716480_a_at) / RFU GAP43 (11754022_s_at) / Fold change /veh GAP43 (11754022_s_at) / RFU A4GNT (11735810_at) / Fold change /veh A4GNT (11735810_at) / RFU PRB3 (11715151_x_at) / Fold change /veh PRB3 (11715151_x_at) / RFU TUBB4B (11761932_at) / Fold change /veh TUBB4B (11761932_at) / RFU CAPN14 (11732068_a_at) / Fold change /veh CAPN14 (11732068_a_at) / RFU TMCC2 (11721928_a_at) / Fold change /veh TMCC2 (11721928_a_at) / RFU IRGQ (11745062_a_at) / Fold change /veh IRGQ (11745062_a_at) / RFU FAM174B (11720279_a_at) / Fold change /veh FAM174B (11720279_a_at) / RFU TMPRSS4 (11748680_a_at) / Fold change /veh TMPRSS4 (11748680_a_at) / RFU FAM212B (11763350_a_at) / Fold change /veh FAM212B (11763350_a_at) / RFU PLEKHG5 (11743358_a_at) / Fold change /veh PLEKHG5 (11743358_a_at) / RFU ZSCAN30 (11745921_a_at) / Fold change /veh ZSCAN30 (11745921_a_at) / RFU CMKLR1 (11741424_a_at) / Fold change /veh CMKLR1 (11741424_a_at) / RFU LOC101060620 /// MAPK8IP1 (11723275_at) / Fold change /veh LOC101060620 /// MAPK8IP1 (11723275_at) / RFU SPTSSB (11747773_x_at) / Fold change /veh SPTSSB (11747773_x_at) / RFU PRSS12 (11739890_at) / Fold change /veh PRSS12 (11739890_at) / RFU BIN1 (11741810_x_at) / Fold change /veh BIN1 (11741810_x_at) / RFU WNT11 (11732464_a_at) / Fold change /veh WNT11 (11732464_a_at) / RFU C10orf10 (11716521_a_at) / Fold change /veh C10orf10 (11716521_a_at) / RFU C5orf56 (11738089_at) / Fold change /veh C5orf56 (11738089_at) / RFU CYB561 (11721691_x_at) / Fold change /veh CYB561 (11721691_x_at) / RFU ANKRD19P (11752326_a_at) / Fold change /veh ANKRD19P (11752326_a_at) / RFU OR2T12 /// OR2T33 /// OR2T8 (11738714_s_at) / Fold change /veh OR2T12 /// OR2T33 /// OR2T8 (11738714_s_at) / RFU VCAN (11748164_a_at) / Fold change /veh VCAN (11748164_a_at) / RFU JSRP1 (11732532_at) / Fold change /veh JSRP1 (11732532_at) / RFU KRTAP10-11 (11738290_x_at) / Fold change /veh KRTAP10-11 (11738290_x_at) / RFU MYO3A (11730013_a_at) / Fold change /veh MYO3A (11730013_a_at) / RFU EBF3 (11725865_a_at) / Fold change /veh EBF3 (11725865_a_at) / RFU CAMK2N1 (11719241_x_at) / Fold change /veh CAMK2N1 (11719241_x_at) / RFU C5orf56 (11738088_a_at) / Fold change /veh C5orf56 (11738088_a_at) / RFU OLFML3 (11715873_a_at) / Fold change /veh OLFML3 (11715873_a_at) / RFU LOC100653217 /// NTM (11731650_a_at) / Fold change /veh LOC100653217 /// NTM (11731650_a_at) / RFU MAPK11 (11762145_a_at) / Fold change /veh MAPK11 (11762145_a_at) / RFU FIZ1 (11724087_x_at) / Fold change /veh FIZ1 (11724087_x_at) / RFU OASL (11726364_x_at) / Fold change /veh OASL (11726364_x_at) / RFU SOX15 (11748057_x_at) / Fold change /veh SOX15 (11748057_x_at) / RFU CD79A (11719716_a_at) / Fold change /veh CD79A (11719716_a_at) / RFU HIST1H1D (11736915_at) / Fold change /veh HIST1H1D (11736915_at) / RFU CASKIN2 (11723855_a_at) / Fold change /veh CASKIN2 (11723855_a_at) / RFU LOC730098 (11760151_x_at) / Fold change /veh LOC730098 (11760151_x_at) / RFU OR4N2 (11742367_at) / Fold change /veh OR4N2 (11742367_at) / RFU PRRT2 (11749266_a_at) / Fold change /veh PRRT2 (11749266_a_at) / RFU SNX32 (11753110_a_at) / Fold change /veh SNX32 (11753110_a_at) / RFU CDHR5 (11726645_a_at) / Fold change /veh CDHR5 (11726645_a_at) / RFU RCAN1 (11760418_a_at) / Fold change /veh RCAN1 (11760418_a_at) / RFU FAM167A (11723789_a_at) / Fold change /veh FAM167A (11723789_a_at) / RFU FAM26E (11764081_at) / Fold change /veh FAM26E (11764081_at) / RFU ISYNA1 (11749810_s_at) / Fold change /veh ISYNA1 (11749810_s_at) / RFU ACY1 (11761880_at) / Fold change /veh ACY1 (11761880_at) / RFU 11764098_at / Fold change /veh 11764098_at / RFU SAMD14 (11745864_x_at) / Fold change /veh SAMD14 (11745864_x_at) / RFU NPB (11741838_a_at) / Fold change /veh NPB (11741838_a_at) / RFU TMPRSS6 (11731388_a_at) / Fold change /veh TMPRSS6 (11731388_a_at) / RFU KRTAP10-2 (11738614_at) / Fold change /veh KRTAP10-2 (11738614_at) / RFU ARHGAP8 /// PRR5-ARHGAP8 (11727945_x_at) / Fold change /veh ARHGAP8 /// PRR5-ARHGAP8 (11727945_x_at) / RFU KRTAP5-7 /// NADSYN1 (11734609_at) / Fold change /veh KRTAP5-7 /// NADSYN1 (11734609_at) / RFU RASL12 (11751679_a_at) / Fold change /veh RASL12 (11751679_a_at) / RFU CDKN2B (11736163_a_at) / Fold change /veh CDKN2B (11736163_a_at) / RFU PRF1 (11729649_at) / Fold change /veh PRF1 (11729649_at) / RFU, ZNF638 /// ZNF638-IT1 / Fold change vs veh, ZNF638 /// ZNF638-IT1 / RFU, PANK3 / Fold change vs veh, PANK3 / RFU, SH3YL1 / Fold change vs veh, SH3YL1 / RFU, ZEB2 / Fold change vs veh, ZEB2 / RFU, NRIP1 / Fold change vs veh, NRIP1 / RFU, PTTG1IP / Fold change vs veh, PTTG1IP / RFU, CAPN2 / Fold change vs veh, CAPN2 / RFU, MED14 / Fold change vs veh, MED14 / RFU, SNORA58 / Fold change vs veh, SNORA58 / RFU, C1orf63 / Fold change vs veh, C1orf63 / RFU, LRRFIP1 / Fold change vs veh, LRRFIP1 / RFU, NDUFAF7 / Fold change vs veh, NDUFAF7 / RFU, SLC12A2 / Fold change vs veh, SLC12A2 / RFU, IBTK / Fold change vs veh, IBTK / RFU, ESF1 / Fold change vs veh, ESF1 / Fold change vs veh, TMEM50B / RFU, TAOK1 / Fold change vs veh, TAOK1 / RFU, ACBD3 / Fold change vs veh, ACBD3 / RFU, TMA16 / Fold change vs veh, TMA16 / RFU, RWDD3 / Fold change vs veh, RWDD3 / RFU, BCAT1 / Fold change vs veh, BCAT1 / RFU, EDEM3 / Fold change vs veh, EDEM3 / RFU, TMEM33 / Fold change vs veh, TMEM33 / RFU, WDR75 / Fold change vs veh, WDR75 / RFU, AHCTF1 / Fold change vs veh, AHCTF1 / RFU, TFRC / Fold change vs veh, TFRC / RFU, ZDHHC17 / Fold change vs veh, ZDHHC17 / RFU, NOM1 / Fold change vs veh, NOM1 / RFU, ARL8B / Fold change vs veh, ARL8B / RFU, ZBTB11 / Fold change vs veh, ZBTB11 / RFU, TAMM41 / Fold change vs veh, TAMM41 / RFU, KIAA1704 /// LOC100996395 / Fold change vs veh, KIAA1704 /// LOC100996395 / RFU, ING1 / Fold change vs veh, ING1 / RFU, TRMT61B / Fold change vs veh, TRMT61B / RFU, FUBP3 / Fold change vs veh, FUBP3 / RFU, TP53 / Fold change vs veh, TP53 / RFU, TNKS2 / Fold change vs veh, TNKS2 / RFU, ZFP14 / Fold change vs veh, ZFP14 / RFU, ACTR2 / Fold change vs veh, ACTR2 / RFU, PPP3R1 / Fold change vs veh, PPP3R1 / RFU, PIK3R1 / Fold change vs veh, PIK3R1 / RFU, HNRNPA1 / Fold change vs veh, HNRNPA1 / RFU, RNF170 / Fold change vs veh, RNF170 / RFU, ZNF28 / Fold change vs veh, ZNF28 / RFU, RNGTT / Fold change vs veh, RNGTT / RFU, OGT / Fold change vs veh, OGT / RFU, BRD1 / Fold change vs veh, BRD1 / RFU, MARS / Fold change vs veh, MARS / RFU, ZNF655 / Fold change vs veh, ZNF655 / RFU, FAHD1 / Fold change vs veh, FAHD1 / RFU, BDP1 / Fold change vs veh, BDP1 / RFU, LRRCC1 / Fold change vs veh, LRRCC1 / RFU, ARID1A / Fold change vs veh, ARID1A / RFU, ZNF146 / Fold change vs veh, ZNF146 / RFU, ZNF330 / Fold change vs veh, ZNF330 / RFU, GPN3 / Fold change vs veh, GPN3 / RFU, C9orf123 / Fold change vs veh, C9orf123 / RFU, N4BP2L2 / Fold change vs veh, N4BP2L2 / RFU, ARFIP1 / Fold change vs veh, ARFIP1 / RFU, FAM179B / Fold change vs veh, FAM179B / RFU, BCL10 / Fold change vs veh, BCL10 / RFU, UHRF1BP1L / Fold change vs veh, UHRF1BP1L / RFU, BET1 / Fold change vs veh, BET1 / RFU, CNOT2 / Fold change vs veh, CNOT2 / RFU, ZNF268 / Fold change vs veh, ZNF268 / Fold change vs veh, ZNF507 / RFU, DGCR2 / Fold change vs veh, DGCR2 / RFU, WDSUB1 / Fold change vs veh, WDSUB1 / Fold change vs veh, HSP90B1 /// MIR3652 / RFU, ADSS / Fold change vs veh, ADSS / RFU, GK / Fold change vs veh, GK / RFU, ZNF148 / Fold change vs veh, ZNF148 / RFU, TAF9 / Fold change vs veh, TAF9 / RFU, SLC1A5 / Fold change vs veh, SLC1A5 / RFU, SLMO2 / Fold change vs veh, SLMO2 / RFU, ABCC4 / Fold change vs veh, ABCC4 / RFU, LOC101060439 /// RAP1B / Fold change vs veh, LOC101060439 /// RAP1B / RFU, RFX7 / Fold change vs veh, RFX7 / RFU, GTPBP10 / Fold change vs veh, GTPBP10 / RFU, CNEP1R1 / Fold change vs veh, CNEP1R1 / RFU, BIVM-ERCC5 /// ERCC5 / Fold change vs veh, BIVM-ERCC5 /// ERCC5 / RFU, ILF3 / Fold change vs veh, ILF3 / RFU 11762660_at / Fold change /veh 11762660_at / RFU VCAN (11757783_s_at) / Fold change /veh VCAN (11757783_s_at) / RFU DDX43 (11728927_at) / Fold change /veh DDX43 (11728927_at) / RFU KRT8 (11758188_x_at) / Fold change /veh KRT8 (11758188_x_at) / RFU NKD1 (11759106_at) / Fold change /veh NKD1 (11759106_at) / RFU SRD5A1 (11742802_a_at) / Fold change /veh SRD5A1 (11742802_a_at) / RFU TPSAB1 /// TPSB2 (11721975_s_at) / Fold change /veh TPSAB1 /// TPSB2 (11721975_s_at) / RFU GSTM3 (11746129_a_at) / Fold change /veh GSTM3 (11746129_a_at) / RFU IL23R (11737362_x_at) / Fold change /veh IL23R (11737362_x_at) / RFU TMEM51 (11727254_a_at) / Fold change /veh TMEM51 (11727254_a_at) / RFU PIWIL2 (11732686_x_at) / Fold change /veh PIWIL2 (11732686_x_at) / RFU ORM1 (11744905_x_at) / Fold change /veh ORM1 (11744905_x_at) / RFU CCDC152 (11743942_at) / Fold change /veh CCDC152 (11743942_at) / RFU ECM1 (11717891_a_at) / Fold change /veh ECM1 (11717891_a_at) / RFU IL23R (11748794_a_at) / Fold change /veh IL23R (11748794_a_at) / RFU TNFAIP8L3 (11732012_x_at) / Fold change /veh TNFAIP8L3 (11732012_x_at) / RFU MBOAT4 (11741988_at) / Fold change /veh MBOAT4 (11741988_at) / RFU 11764193_at / Fold change /veh 11764193_at / RFU TMEM53 (11763286_at) / Fold change /veh TMEM53 (11763286_at) / RFU MAGEB2 (11727129_at) / Fold change /veh MAGEB2 (11727129_at) / RFU TMEM200A (11744735_a_at) / Fold change /veh TMEM200A (11744735_a_at) / RFU CCDC152 (11751479_a_at) / Fold change /veh CCDC152 (11751479_a_at) / RFU FAM211A (11726209_a_at) / Fold change /veh FAM211A (11726209_a_at) / RFU RGS16 (11746705_a_at) / Fold change /veh RGS16 (11746705_a_at) / RFU VCAN (11755009_s_at) / Fold change /veh VCAN (11755009_s_at) / RFU RHOB (11743442_s_at) / Fold change /veh RHOB (11743442_s_at) / RFU RGS16 (11720943_a_at) / Fold change /veh RGS16 (11720943_a_at) / RFU RGS16 (11720944_at) / Fold change /veh RGS16 (11720944_at) / RFU, VPS4B / Fold change vs veh, VPS4B / RFU, CREB1 / Fold change vs veh, CREB1 / RFU, DNAJC13 / Fold change vs veh, DNAJC13 / RFU, GNAQ / Fold change vs veh, GNAQ / RFU, CDK5R1 / Fold change vs veh, CDK5R1 / RFU, ZRANB3 / Fold change vs veh, ZRANB3 / RFU, CUL4A / Fold change vs veh, CUL4A / RFU, CCNY / Fold change vs veh, CCNY / RFU, UFL1 / Fold change vs veh, UFL1 / RFU, COG3 / Fold change vs veh, COG3 / RFU, DIAPH2 / Fold change vs veh, DIAPH2 / RFU, SKA2 / Fold change vs veh, SKA2 / RFU, AFF3 / Fold change vs veh, AFF3 / RFU, LMF1 / Fold change vs veh, LMF1 / RFU, IPO11 / Fold change vs veh, IPO11 / RFU, DFFB / Fold change vs veh, DFFB / RFU, FOXP1 / Fold change vs veh, FOXP1 / RFU, CARD8 / Fold change vs veh, CARD8 / RFU, STRN3 / Fold change vs veh, STRN3 / RFU, ADK / Fold change vs veh, ADK / RFU, RASSF2 / Fold change vs veh, RASSF2 / RFU, WIPF1 / Fold change vs veh, WIPF1 / RFU, LARP1B / Fold change vs veh, LARP1B / RFU, RASA1 / Fold change vs veh, RASA1 / RFU, RB1 / Fold change vs veh, RB1 / RFU, PPFIA1 / Fold change vs veh, PPFIA1 / RFU, MAT2A / Fold change vs veh, MAT2A / RFU, CCT5 / Fold change vs veh, CCT5 / RFU, WDR92 / Fold change vs veh, WDR92 / RFU, CUX1 / Fold change vs veh, CUX1 / RFU, TTC7A / Fold change vs veh, TTC7A / RFU, TMEM135 / Fold change vs veh, TMEM135 / RFU, DEPTOR / Fold change vs veh, DEPTOR / RFU, CPM / Fold change vs veh, CPM / RFU, DNAJB6 / Fold change vs veh, DNAJB6 / RFU, CACNA2D3 / Fold change vs veh, CACNA2D3 / RFU, DTX4 / Fold change vs veh, DTX4 / RFU, TFCP2 / Fold change vs veh, TFCP2 / RFU, GMCL1 /// GMCL1P1 / Fold change vs veh, GMCL1 /// GMCL1P1 / RFU, AEBP2 / Fold change vs veh, AEBP2 / RFU, SNHG1 /// SNORD22 /// SNORD25 /// SNORD26 /// SNORD27 /// SNORD28 /// SNORD29 /// SNORD31 / Fold change vs veh, SNHG1 /// SNORD22 /// SNORD25 /// SNORD26 /// SNORD27 /// SNORD28 /// SNORD29 /// SNORD31 / Fold change (Aza/veh), C12orf56 (ProbeSet 11735607_a_at) / Fold change (ACY-1035/veh), C12orf56 (ProbeSet 11735607_a_at) / Fold change (Aza/veh), FGFR1OP (ProbeSet 11751329_s_at) / Fold change (ACY-1035/veh), FGFR1OP (ProbeSet 11751329_s_at) / Fold change (Aza/veh), VPS36 (ProbeSet 11739960_a_at) / Fold change (ACY-1035/veh), VPS36 (ProbeSet 11739960_a_at) / RFU SYPL1 (11715823_x_at) / Fold change /veh SYPL1 (11715823_x_at) / RFU IGFBP7 (11715501_s_at) / Fold change /veh IGFBP7 (11715501_s_at) / RFU REEP3 (11722064_at) / Fold change /veh REEP3 (11722064_at) / RFU IGLL1 (11728026_x_at) / Fold change /veh IGLL1 (11728026_x_at): dose or concentration left out as unconfirmed
Conditions: ProbeSet 11725787_a_at; LIST B

For `Nc1ccc(-c2cccs2)cc1NC(=O)c1ccc2c(c1)cc(C1CC1)n2CCN1CCOCC1` [ACY-1035], the “RFU, TMA16” value was 138.28 RFU.
